The target of one series is T1, SARM1 (Homo sapiens, UniProt Q6SZW1).
T1 construct: 408-724 expression plasmid and vector-control customized by SinoBio; host or cells: NRK1-HEK293T cells, transient transfection; crude clarified lysate used as the enzyme
T1 sequence (Q6SZW1 408-724 limits assumed): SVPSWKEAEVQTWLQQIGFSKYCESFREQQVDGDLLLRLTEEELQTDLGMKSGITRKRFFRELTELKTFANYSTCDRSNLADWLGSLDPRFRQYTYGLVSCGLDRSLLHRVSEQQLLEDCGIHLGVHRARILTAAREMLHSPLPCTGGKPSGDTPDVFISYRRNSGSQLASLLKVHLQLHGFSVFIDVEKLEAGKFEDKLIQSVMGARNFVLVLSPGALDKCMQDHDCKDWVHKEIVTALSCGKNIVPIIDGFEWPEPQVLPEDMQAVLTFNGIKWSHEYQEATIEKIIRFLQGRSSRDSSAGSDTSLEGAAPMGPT
Nature of the series: In vitro enzyme inhibition activity (SAM-TIR lysate, NAD/ADPR by HPLC-MS/MS). Type of series: biochemical. The settings on record: SAM-TIR lysate (SARM1 408-724) from NRK1-HEK293T cells; 25°C, 3 h with NAD. How it is done: NRK1-HEK293T cells were seeded at approximately 10 × 10^6 cells/plate into 150 mm culture dishes containing 25 mL of growth medium. […] At the time of transfection, 250 µL of nicotinamide riboside (100 mM) was added to each dish to minimize toxicity from SAM-TIR overexpression. 48 hours after the transfection, the cells were washed three to four times with cold PBS and collected. The cells were resuspended in 0.5 mL of PBS containing protease inhibitors. Cell lysates were prepared by sonication. The lysate was centrifuged at 12500 rpm for 10 min at 4°C to remove cell debris, and protein concentration was determined by bicinchoninic acid (BCA) assay and used to normalize lysate concentration. The aliquots of supernatant were stored at -80°C until use.
• 1) Transfer the compound dilutions into an assay plate by Echo 650; • 2) Add 10µl 2× SAM-TIR lysate to each well; • 3) Seal the assay plate, centrifuge at 1000rpm for 1min, and incubate at 25°C for 30min; • 4) Add 10µl 2× NAD to each well; • 5) Centrifuge at 1000rpm for 1min, and incubate at 25°C for 3h; • 6) Add 40µL trichloroacetic acid to each well to terminate the reaction, mix and shake for 30s, and centrifuge at 4000rpm for 10min; • 7) Take 40µL supernatant from each well and add appropriate amount of ammonia water to adjust the pH; • 8) Detect nicotinamide adenine dinucleotide (NAD) and adenosine diphosphate ribose (ADPR) by HPLC-MS/MS.

Series [1] is described as follows: Liver microsomal stability in vitro. It counts as in vitro ADME. The settings on record: liver microsomes, NADPH, 37 °C, 0-45 min. As for the experimental part: 100 mM K-Mg-buffer containing 5 mM MgCl2 was preheated. The spiking solution was prepared by adding 5 µL of 10 mM compound and reference stock solution to 95 µL of acetonitrile (ACN). 1.5 µL of 500 µM spiking solution and 18.75 µL of 20 mg/mL liver microsomes were added to 479.8 µL of K-Mg-buffer. NADPH stock solution (3 mM) was prepared by dissolving NADPH in K-Mg-buffer. 30 µL of 1.5 µM spiking solution containing microsomes was evenly dropped into the assay plate at different time points (0, 5, 15, 30, and 45 min), and pre-incubated at 37 °C for 5 min. At 0 min, 200 µL of ACN containing IS (internal standard, tolbutamid/terfenadine) was added to the wells, then 15 µL of NADPH stock solution (6 mM) was added. For the other time points, the reaction was initiated and timed by adding 15 µL of NADPH stock solution (6 mM) to the wells. The reaction was stopped by adding 200 µL of ACN containing IS to the corresponding plate wells at 5, 15, 30, and 45 min, respectively. After quenching, the plate was shaken at 600 rpm for 10 min and then centrifuged at 4000 rpm for 50 min. 80 µL of supernatant per well was pipetted to a 96-well sample plate containing 160 µL of pure water for UPLC/MS/MS analysis.
(In general: Liver microsomes are a subcellular fraction often used to study metabolism.)

The test system of a further series is mouse primary neurons. Nature of the series: Neuronal injury model based on mouse primary neurons (axotomy, TUJ1 staining). It counts as cell-based. The settings on record: 0.3 µM, compared with the control I-5; axotomy at DIV 10, Figure 1. How it is done: Methods: Neocortices were dissected from the brains of newborn mice at DIV 0 (Day In Vitro 0), digested with 0.05% (w/v) trypsin/EDTA, and incubated at 37°C for 10 min. Neuronal cells obtained after digestion were seeded in cell culture dishes preincubated with poly-D-lysine in Neurobasal/B-27 medium (Neurobasal medium supplemented with 1% (v/v) B-27, 2 mM glutamine, 100 U/ml penicillin, and […] streptomycin). Starting from DIV 3, a half of the medium was replaced with fresh Neurobasal/B-27 medium every two days. At DIV 10, the cultures were subjected to axotomy and compound administration. The cells were fixed with 4% paraformaldehyde the day after axotomy and subjected to cell immunofluorescence staining for TUJ1. Confocal imaging of axons was performed using a Zeiss LSM710 laser confocal microscope.

Each structure is given as a SMILES string. pIC50: −log10 of the molar value. Bounds are passed on as bounds.

In general, pIC50 refers to the IC50 on a negative log10 scale, so that one unit is a factor of ten. In general, half-life refers to the time in which the quantity being followed falls by half. A high value points to slow loss. In turn, `O=C1C(Cc2ccc(Cl)c(F)c2)CCCN1c1nc2c([nH]1)COc1cnccc1-2` (stereo not drawn) [Cpd. 25] had a pIC50 at SARM1 greater than 6.82. In series [1], the half-life is 26.1 min. The “neuron-protecting activity (axonal loss after axonal injury)” value in the series with mouse primary neurons was “stronger neuron-protecting activity”.
